Results taken from the supplement of paper PMC11003180.

Experiments:
Experiment in all cases: drug sensitivity score (DSS) from 5-dose viability curve (DSS (area-based score, 0 = no response)); higher = more sensitive (stronger viability inhibition); extreme values may be limits of the assay
[1] = system: MDCK wild-type - doxycycline; settings: doxycycline: none; 72 h
In short: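 An oncology library of 528 drugs was pre-spotted at five doses (1-10,000 nM) in 384-well plates, and parental MDCK cells without doxycycline were added at 2000 cells/well. The plates were kept at 37 °C for 72 h. Drug sensitivity scores were obtained by fitting dose-response curves in the Breeze pipeline to CellTiter-Glo viability readings scaled per plate between vehicle and positive controls.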

[2] = system: MDCK p60AmotL2-inducible + doxycycline (p60AmotL2 expressing); settings: doxycycline: 10 ng/mL; 72 h
In short: (§1)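 Parental MDCK cells and MDCK cells with doxycycline-inducible p60AmotL2, both given doxycycline at 10 ng/mL in the medium before plating, were dispensed at 2000 cells/well onto pre-spotted 384-well plates. The plates held an oncology library of 528 drugs at five doses (1-10,000 nM) and were incubated 72 h at 37 °C. Viability was read as CellTiter-Glo luminescence and scaled per plate between vehicle and positive controls. Drug sensitivity scores came from dose-response curve fits in the Breeze pipeline.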

[3] = system: MDCK wild-type + doxycycline; settings: doxycycline: 10 ng/mL; 72 h
In short: as §1

| SMILES | drug sensitivity score [1] | drug sensitivity score [2] | drug sensitivity score [3] |
| --- | --- | --- | --- |
| CNC(=O)c1ccccc1Sc1ccc2c(/C=C/c3ccccn3)n[nH]c2c1 [Axitinib] | 0 | 5.7 | 0 |
| COc1cc2nccc(Oc3ccc(NC(=O)C4(C(=O)Nc5ccc(F)cc5)CC4)cc3)c2cc1OC [Cabozantinib] | 0 | 0 | 0 |
| N.N.[Cl][Pt][Cl] [Cisplatin] | 5.7 | 13.5 | 12.2 |
| C=C1C[C@@H]2CC[C@@]34C[C@H]5O[C@H]6[C@@H](O3)[C@H]3O[C@H](CC[C@@H]3O[C@H]6[C@H]5O4)CC(=O)C[C@@H]3[C@@H](OC)[C@@H](C[C@H](O)CN)O[C@H]3C[C@H]3O[C@@H](CC[C@@H]1O2)C[C@@H](C)C3=C [Eribulin] | 17.3 | 23.4 | 22.5 |
| COCCNCc1ccc(-c2cc3nccc(Oc4ccc(NC(=S)NC(=O)Cc5ccc(F)cc5)cc4F)c3s2)nc1 [Glesatinib] | 0 | 0.4 | 0 |
| Cn1nnc2c(C(N)=O)ncn2c1=O [Temozolomide] | 0 | 0 | 0 |
| COc1cccc(-c2ccc(NC(=O)C3=C(C(=O)O)CCC3)c(F)c2)c1 [Vidofludimus] | 0.4 | 1.2 | 0.6 |
| O=C(CCCCCCNC(=O)c1cnc(N(c2ccccc2)c2ccccc2)nc1)NO [Rocilinostat] | 4.5 | 7.2 | 4.9 |
| CNC(=O)c1ccc(N2C(=S)N(c3cnc(C#N)c(C(F)(F)F)c3)C(=O)C23CCC3)cc1F [Apalutamide] | 0 | 0 | 0 |
| CON(C)C(=O)N1N=C(c2cc(F)ccc2F)S[C@@]1(CCCN)c1ccccc1 [Filanesib] | 29.1 | 27.5 | 28.7 |
| Nc1nc2[nH]cc(CCc3ccc(C(=O)N[C@@H](CCC(=O)O)C(=O)O)cc3)c2c(=O)[nH]1 [Pemetrexed] | 5.5 | 7.1 | 5.3 |
| CCC1=C[C@@H]2CN(C1)Cc1c([nH]c3ccccc13)[C@@](C(=O)OC)(c1cc3c(cc1OC)N(C)[C@H]1[C@@](O)(C(=O)OC)[C@H](OC(C)=O)[C@]4(CC)C=CCN5CC[C@]31[C@@H]54)C2 [Vinorelbine] | 29.8 | 34.2 | 30.2 |
| CCN(CC)CCN(Cc1ccc(-c2ccc(C(F)(F)F)cc2)cc1)C(=O)Cn1c(SCc2ccc(F)cc2)nc(=O)c2c1CCC2 [Darapladib] | 0 | 0 | 0 |
| Cc1noc2c1-c1ccccc1C(c1ccc(Cl)cc1)=N[C@H]2CC(N)=O [CPI-0610] | 3.1 | 10.9 | 4.8 |
| COc1cccc2c1C(=O)c1c(O)c3c(c(O)c1C2=O)C[C@@](O)(C(=O)CO)C[C@@H]3O[C@H]1C[C@H](N)[C@@H](O)[C@H](C)O1 [Epirubicin] | 5.9 | 11.6 | 10 |
| C#Cc1cccc(Nc2ncnc3cc4c(cc23)OCCOCCOCCO4)c1 [Icotinib] | 0 | 7.8 | 2.4 |
| COc1cc(Nc2ncc(F)c(Nc3ccc4c(n3)N(COP(=O)(O)O)C(=O)C(C)(C)O4)n2)cc(OC)c1OC [Fostamatinib] | 0.7 | 4.6 | 1.8 |
| C[C@@H](Oc1ccc2[nH]nc(/C=C/c3cnn(CCO)c3)c2c1)c1c(Cl)cncc1Cl | 7.1 | 9.3 | 7.2 |

| SMILES | drug sensitivity score [1] | drug sensitivity score [2] | drug sensitivity score [3] |
| --- | --- | --- | --- |
| CCCCCCCCc1ccc(CCC(N)(CO)CO)cc1 [Fingolimod] | 6.7 | 6.7 | 8.7 |
| Nc1ncnc2c1c(COc1cccc(Cl)c1)nn2C1CCOCC1 | 0 | 0.5 | 0 |
| COc1cc(N2CCC(N3CCN(C)CC3)CC2)ccc1Nc1ncc(Cl)c(Nc2ccccc2P(C)(C)=O)n1 [Brigatinib] | 4.1 | 5.2 | 2.6 |
| CN(C)CC#Cc1ccc(OCCCc2sc(N3CCc4cccc(C(=O)Nc5nc6ccccc6s5)c4C3)nc2C(=O)O)c(F)c1 | 0 | 0 | 0 |
| CCOCc1nc2c(N)nc3ccccc3c2n1CC(C)(C)O [Resiquimod] | 0 | 0 | 0 |
| C[C@@H](Oc1cc(-c2cnn(C3CCNCC3)c2)cnc1N)c1c(Cl)ccc(F)c1Cl [Crizotinib] | 0 | 0 | 0 |
| Cn1nccc1Nc1nccc(-c2ccn([C@H](CO)c3ccc(Cl)c(F)c3)c(=O)c2)n1 [Ravoxertinib] | 0 | 0.2 | 0 |
| OC[C@H]1O[C@@H](n2cnc3c2N=CNC[C@H]3O)C[C@@H]1O [Pentostatin] | 0 | 0 | 0 |
| CC[C@H](CC#N)OC(=O)N[C@@H](C)c1cccc(NC(=O)Nc2ccc(-c3cnco3)c(OC)c2)c1 [AVN944] | 11.1 | 18.5 | 12.6 |
| C[C@H]1C[C@@H]2[C@H]([C@@H](O)C[C@@]3(C)[C@H]2CC[C@]3(O)C(=O)CO)[C@@]2(C)C=CC(=O)C=C12 [Methylprednisolone] | 0 | 0 | 0 |
| COc1cc2c(NC3CCN(C(C)C)CC3)nc(N3CCC(F)(F)CC3)nc2cc1OCCCN1CCCC1 [UNC0642] | 0 | 0.2 | 0 |
| CO[C@H]1C[C@@H]2CC[C@@H](C)[C@@](O)(O2)C(=O)C(=O)N2CCCC[C@H]2C(=O)O[C@H]([C@H](C)C[C@@H]2CC[C@@H](OC(=O)C(C)(CO)CO)[C@H](OC)C2)CC(=O)[C@H](C)/C=C(\C)[C@@H](O)[C@@H](OC)C(=O)[C@H](C)C[C@H](C)/C=C/C=C/C=C/1C [Temsirolimus] | 0 | 10 | 2.3 |
| Nc1nc(NC2CC2)cc(-c2cccc(Cl)c2Cl)n1 [TH588] | 0 | 0 | 0 |
| CNC(=O)c1cc(COc2nnc(Nc3ccc(Cl)cc3)c3ccoc23)ccn1 [Telatinib] | 0 | 0 | 0 |
| CCCOc1ccn2c(C(C)=O)cc(-c3ccccc3S(C)(=O)=O)c2c1 [GSK2801] | 0 | 0 | 0 |
| COc1cc(OC)c(/C=C/S(=O)(=O)Cc2ccc(OC)c(NCC(=O)O)c2)c(OC)c1 [Rigosertib] | 24 | 26.8 | 26.5 |
| CNC(=O)c1nn(C)c2c1C(C)(C)Cc1cnc(Nc3ccc(N4CCN(C)CC4)cc3)nc1-2 [Milciclib] | 12.4 | 13.2 | 14.5 |
